The record followed here is patent US6806281B2 (Georgetown University, priority 1997, dated 2004).

The nature of data set [1]: Locomotor activity. The format is in vivo, Sprague-Dawley rats. As to the method: The locomotor effects of compound 2 were evaluated using male Swiss Webster mice according to previously published procedures: Izenwasser, S., Terry, P., Heller, B., Witkin, J. M., and Katz, J. L. (1994) Differential relationships among dopamine transporter affinities and stimulant potencies of various uptake inhibitors. Eur. J. Pharmacol., 263, 277-283.
Thus the small behavioral responses to the piperidine analog appear to last longer than that of cocaine.

A short description of data set [2]: Drug discrimination, amphetamine substitution tests. As to conditions: for response rates: across all test doses. In kind it is in vivo, rats.
A short description of data set [3]: Drug discrimination, cocaine substitution and co-administration tests. The format is in vivo, rats.
Data set [4] is described as follows: Intravenous drug self-administration. The format is in vivo, rats. The conditions noted are these: for self-administration responding: i.v., FR10, cocaine 1 mg/kg/infusion, analog 2 0.3-3 mg/kg/infusion, analog 3 0.125-0.5 mg/kg infusion, vs saline extinction. An excerpt:
J. Neurosci., 16, 7416-7427.
Rats were initially trained to lever press for food pellets in standard operant boxes. Following lever press training, rats were implanted with polyvinyl chloride catheters into femoral veins under halothane anesthesia (2-3% in medical grade oxygen) and were allowed to recover for an additional 7 days before initiation of i.v. drug self-administration testing. During drug self-administration sessions, food pellets were no longer delivered, and instead intravenous injections of drugs were delivered by way of the catheter.
Following this second extinction test, self-administration of piperidine analog 2 was studied at doses of 1, 3, and 0.3 mg/kg/infusion in that order. Each dose was tested for five days. During all the re-acquisition test days, a priming infusion was given at the start of the session on each day.

In data set [5] the target is T1, dopamine transporter (Rattus norvegicus, UniProt P23977). Description: biochemical. As to conditions: IC50 (nM) [3H]WIN 35,428 binding, rat striatal membranes.
T1 sequence (P23977 whole entry): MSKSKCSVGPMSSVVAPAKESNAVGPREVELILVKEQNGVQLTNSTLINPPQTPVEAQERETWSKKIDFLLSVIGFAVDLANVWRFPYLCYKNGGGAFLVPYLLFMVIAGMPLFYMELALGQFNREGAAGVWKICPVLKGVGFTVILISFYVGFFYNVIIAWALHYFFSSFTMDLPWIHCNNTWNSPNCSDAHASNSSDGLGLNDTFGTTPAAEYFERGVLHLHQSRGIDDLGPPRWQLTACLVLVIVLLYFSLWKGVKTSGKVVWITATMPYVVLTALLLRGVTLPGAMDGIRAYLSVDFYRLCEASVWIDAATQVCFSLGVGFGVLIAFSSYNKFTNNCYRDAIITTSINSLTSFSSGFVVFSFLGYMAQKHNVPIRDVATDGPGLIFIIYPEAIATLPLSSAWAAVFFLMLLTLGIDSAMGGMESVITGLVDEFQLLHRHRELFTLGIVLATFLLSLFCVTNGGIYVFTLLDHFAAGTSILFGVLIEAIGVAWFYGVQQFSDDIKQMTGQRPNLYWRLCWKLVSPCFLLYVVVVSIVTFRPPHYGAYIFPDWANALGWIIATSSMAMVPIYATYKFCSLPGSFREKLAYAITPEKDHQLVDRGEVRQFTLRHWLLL
Data set [6] deals with T1, dopamine transporter. Description: biochemical. The conditions noted are these: IC50 (nM) [3H]dopamine uptake, rat striatal synaptosomes.
In data set [7] the target is T1, dopamine transporter. The conditions noted are these: relative to cocaine.
Data set [8] deals with T1, dopamine transporter. As to conditions: relative to cocaine. The source holds these as a separate data set.
Data set [9] concerns striatal dopamine transporter. Description: PET evaluation of 11C-labeled isomers. As to conditions: for specific binding to striatal dopamine transporter sites: in vivo PET. As for the experimental part: The products were purified by HPLC on a C-18 cartridge eluted with MeOH:phosphate/triethylamine buffer, pH 7.2 (60:40).
After passage through a 0.22 μm filter, the sterile products were administered to three Rhesus monkeys and dynamic PET images were acquired over 90 minutes.

For orientation: melting point means the temperature of the solid-liquid transition. In general, IC50 refers to the concentration that gives 50% inhibition.

Molecules are shown by their SMILES.

Consider `COC(=O)C1CN(C)CCC1c1ccc(Cl)cc1` (racemic) [(±)-2, (±)-cis-Methyl 4-(4-Chlorophenyl)-1-methylpiperidine-3-carboxylate], for which the “time-course of stereotypic response” value in [1] (90 minutes following the drug injection) is “persistent at 90 minutes”. Moreover, in [1] (doses higher than 20 mg/kg i.p.), the convulsions result is given as “produce convulsions”. Further, the distance traveled entry in data set [1] (i.p., cocaine 10 mg/kg, analog 2 3-20 mg/kg, compared to saline control) is on record as “did not alter the distance traveled”. Further, the “stereotypic behavior / stereotypic time” value in data set [1] (i.p., cocaine 10 mg/kg, analog 2 10 and 20 mg/kg, compared to saline control) is “small, statistically nonsignificant increase in stereotypic time”. Also, the response rates result in data set [2] is reported as “remained fairly stable”. For the same compound, in data set [3] (analog 2 10 mg/kg plus cocaine 1.25 and 5 mg/kg), the “effect of co-administration on drug choice and response rate of cocaine” value was “did not significantly alter drug choice”. Besides, the “response rates compared with cocaine (10 mg/kg)” value in [3] (analog 2 5 and 10 mg/kg) is recorded as “substantially lower”. In addition, in data set [3] (analog 2 5 and 20 mg/kg), the maximum cocaine-lever responding is 40%. Also, the “number of infusions delivered” value in data set [4] (analog 2, all doses tested (0.3-3 mg/kg/infusion), vs saline extinction test) is recorded as “not significantly different from that of the saline extinction test”. For the same compound, the self-administration responding result in data set [4] is reported as “failed to restore the self-administration responding”.

Compound `COC(=O)[C@@H]1CN(C)CC[C@@H]1c1ccc(Cl)cc1` (racemic) [Compound (±)-1, (±)-cis-Methyl 4-(4-Chlorophenyl)-1-methylpiperidine-3-carboxylate] gave a melting point of 98 to 99 °C.

For `COC(=O)C1CN(C)CCC1c1ccc(Cl)cc1` (single isomer, unassigned; (+)) [(+)-11, (+)-Methyl 4β-(4-chlorophenyl)-1-methylpiperidine-3α-carboxylate], the IC50 in data set [5] worked out at 57.3 ± 8.1 nM; in data set [6], 34.6 ± 3.2 nM.

For the compound `CCCC1CN(C)CCC1c1ccc(Cl)cc1` (single isomer, unassigned; (+)) [(+)-15, (+) 4β-(4-chlorophenyl)-1-methyl-3α-n-propylpiperidine], the 50% inhibitory concentration (IC50) in [5] is 17.2 ± 0.5 nM; in data set [6] it was 23.2 ± 2.2 nM.

`COC(=O)C1CN(C)CCC1c1ccc(Cl)cc1` (single isomer, unassigned; (-)) [(−)-3, (−)-Methyl 4β-(4-chlorophenyl)-1-methylpiperidine-3β-carboxylate]: in [4], the self-administration responding result is given as “rats reliably self-administered this compound”. Besides, the IC50 in [5] came to 24.8 ± 1.6 nM; in data set [6], 85.2 ± 2.6 nM.

Compound `CN1CCC(c2ccc(Cl)cc2)C(CO)C1` (single isomer, unassigned; (-)) [(−)-5, (−)-4β-(4-Chlorophenyl)-3β-(hydroxymethyl)-1-methylpiperidine] yielded an IC50 in [6] of 49 ± 3 nM.

`CC(=O)OCC1CN(C)CCC1c1ccc(Cl)cc1` (single isomer, unassigned; (-)) [(−)-7, (−)-3β-(Acetoxymnethyl)-4β-(4-chlorophenyl)-1-methylpiperidine] displayed a melting point of 76 °C. Further, in data set [5], the IC50 is 44.7 ± 10.5 nM. Further, the IC50 in data set [6] is 62.9 ± 2.7 nM.

For the compound `CCCC1CN(C)CCC1c1ccc(Cl)cc1` (single isomer, unassigned; (-)) [(−)-9, (−) 4β-(4-chlorophenyl)-1-methyl-3β-n-propylpiperidine], the “fold more potent than cocaine in binding affinity” value in data set [7] worked out at 33 fold. The “fold more potent than cocaine in inhibition of dopamine uptake” value in data set [8] stood at 29 fold. Further, the results for the concentration for half-maximal inhibition (IC50) in [5] and in data set [6] were 3 nM and 8.3 ± 0.6 nM, respectively.

Consider `COC(=O)C1CN(C)CCC1c1ccc(Cl)cc1` (single isomer, unassigned; isomer 4) [cis isomer, 4-(4-chlorophenyl)-3-carbomethoxy-N-methylpiperidine], for which the “accumulation in brain regions (dynamic PET)” value in [9] (11C-labeled, PET images over 90 minutes) is “greater nonspecific accumulation in the cortex”. The “specific binding to striatal dopamine transporter sites” value in data set [9] is “high levels of specific binding”.

In the case of `COC(=O)C1CN(C)CCC1c1ccc(Cl)cc1` (single isomer, unassigned; isomer 4) [trans isomer, 4-(4-chlorophenyl)-3-carbomethoxy-N-methylpiperidine], in [9], the “specific binding to striatal dopamine transporter sites” value is reported as “high levels of specific binding”. Also, in data set [9] (unlabeled CFT administered 60 minutes after injection), the “striatal activity after unlabeled CFT” value was “selective decrease in the striatal activity”.

Take `CC(N)Cc1ccccc1` (centres unmarked) [amphetamine]: the response rates result in data set [2] is given as “remained fairly stable”. Besides, the “substitution for the discriminative stimulus effects of amphetamine” value in data set [2] (substitution tests) was “dose-dependent and complete substitution”.
